Biological target: Human immunodeficiency virus type 1 protease (Human immunodeficiency virus 1, UniProt Q72874)
Test: Binding affinity against HIV -1 protease

Row | Structure (SMILES) | Ki [nM]
1 | C[C@H](N)C(=O)N[C@@H](C)C(=O)N[C@@H](Cc1ccccc1)[C@@H](O)CCC(=O)NC(c1ccccc1)c1cc2ccccc2[nH]1 (stereo not given in full) | 43
2 | C[C@H](N)C(=O)N[C@@H](C)C(=O)N[C@@H](Cc1ccccc1)[C@@H](O)CCC(=O)NC(c1ccccc1)c1nc2ccccc2[nH]1 (stereo not given in full) | 5370
3 | O=C(CC[C@H](O)[C@H](Cc1ccccc1)NC(=O)CC(NC(=O)c1ccc2ccccc2n1)C(=O)O)NC(c1cccc(C(F)(F)F)c1)c1cc2ccccc2[nH]1 (stereo not given in full) | 33
4 | Cc1cccc(C(NC(=O)CC[C@H](O)[C@H](Cc2ccccc2)NC(=O)CC(NC(=O)c2ccc3ccccc3n2)C(=O)O)c2cc3ccccc3[nH]2)c1 (stereo not given in full) | 39
5 | O=C(CC[C@H](O)[C@H](Cc1ccccc1)NC(=O)CC(NC(=O)c1ccc2ccccc2n1)C(=O)O)NC(c1ccccc1)c1cc2ccccc2[nH]1 (stereo not given in full) | 200

Reference: ChEMBL document CHEMBL1127634, “Calculation of relative differences in the binding free energies of HIV1 protease inhibitors: a thermodynamic cycle perturbation approach” (J Med Chem, 1994)
